Non-standard residues stand in square brackets, D forms with d. Residues, ends and D or L forms follow the SMILES beside them.
Tests used:
N2a-Tau^RDΔK cells [1] = assay: MTT cytotoxicity of the peptides alone; type: cell-based; details: 25, 50, 100, 250 μM peptide, 24 h, n = 3
Method: Cell viability was analyzed in accordance with the manufacturer’s protocol (Roche Diagnostics, Mannheim, Germany; cell proliferation kit II (MTT)). This assay is based on the cleavage of the yellow tetrazolium salt MTT into purple formazan dye by metabolic active cells. The color changes only in viable cells and can be directly quantified using a scanning multiwell spectrophotometer. In all experiments, the cells were grown as described previously. The cells (25,000 cells/well or 80% confluence) were plated on poly D-lysine-coated 96-well plates (Greiner Bio-One GmbH, Frickenhausen, Germany) for stronger attachment from overnight to 24 h at 37 °C. Fibrillized Tau^RDΔK was generated by incubating 200 μM Tau^RDΔK in BES buffer at 37 °C for 24 h in the presence of 2 mM D-peptides (Tau^RDΔK:peptide = 1:10). Successful fibrillization was verified using ThS (5 μM Tau^RDΔK, 10 μM ThS) measurement. The aggregated Tau^RDΔK (10 μM final concentration), Tau^RDΔK (10 μM) + peptide (100 μM) samples (ISAD1 and ISAD1rev), buffer only (negative control, set to 100% cell viability), and TritonX-100 (2%, cytotoxic agent, positive control) were incubated on N2a-Tau^RDΔK cells (100 μl solution) for another 24 h. The cell viability was measured in accordance with the manufacturer’s protocol.
A MTT-based cytotoxicity assay in the presence of ISAD1 and ISAD1rev peptides. […]

N2a-Tau^RDΔK cells [2] = assay: LDH release with the peptides alone; type: cell-based; details: 25, 50, 100, 250 μM peptide, 24 h, n = 3
Method: N2a cells expressing Tau^RDΔK were plated on poly D-lysine-coated 96-well plates with a density of 25,000 cells/well. At 70 to 80% confluence, the cells were treated for 24 h with various concentrations of D-peptides (25, 50, 100, and 250 μM) or Tau^RDΔK (10 μM final concentration) in the presence of ISAD1 and ISAD1rev (100 μM final concentration). The ability of D-peptides to neutralize the toxicity of Tau^RDΔK oligomers/fibrils was investigated by measuring the amount of released LDH (Roche Diagnostics, Mannheim, Germany). Therefore, 50 μL of each well was transferred to a fresh 96-well plate and 50 μL of reagent was added followed by a 30-min incubation period at RT. Finally, 50 μL of stop solution (1 N HCl) was added and absorbance was recorded at 492 nm (TECAN spectrofluorometer, Männedorf, Switzerland). Absorbance values were corrected by background values and the percentage of LDH release was calculated.

CC(C)C[C@@H](NC(=O)[C@@H](CO)NC(=O)[C@@H](CC(C)C)NC(=O)[C@H](NC(=O)[C@@H](CC(=O)O)NC(=O)[C@@H](C)NC(=O)[C@@H](C)NC(=O)[C@H](N)CO)[C@H](C)O)C(=O)N[C@H](CCCCN)C(=O)N[C@H](Cc1ccccc1)C(=O)N[C@@H](C(=O)N[C@H](CO)C(=O)O)C(C)C [ISAD1rev] (H-[dS][dA][dA][dD][dT][dL][dS][dL][dK][dF][dV][dS]-OH; N-terminus and C-terminus assumed)
Cytotoxicity, MTT (N2a-Tau^RDΔK cells [1]): do not induce toxic effects
Cytotoxicity, LDH release (N2a-Tau^RDΔK cells [2]): do not induce toxic effects

Reference: publication PMC8783508, “A novel D-amino acid peptide with therapeutic potential (ISAD1) inhibits aggregation of neurotoxic disease-relevant mutant Tau and prevents Tau toxicity in vitro” (Alzheimer's Research & Therapy, 2022)
